In patent US20160061849A1, “LIPIDOMIC BIOMARKERS” (UNITHER VIROLOGY, LLC, priority 2014, published 2016):

Assays:
Huh7.5 cells = experiment: "Total lipid" fatty acid profiling (GCMS) of hepatoma cells treated with iminosugars; type: cell-based, human; details: uninfected state, antiviral concentrations, 4 days
Protocol: Methods for cell culture of replication-competent HCV in human hepatoma cells were essentially as described (Pollock, Nichita et al. 2010). Huh7.5 cells (Apath, LLC) were grown in DMEM supplemented with 100 U/ml penicillin, 100 μg/ml streptomycin, 2 mM L-glutamine, 1×MEM, and 10% FBS. All incubations were at 37° C./5% CO2. The effect of iminosugar treatment on cellular lipid profiles was determined for both uninfected and HCVcc-infected cells. In order to infect cells with HCV strain Jc1 (genotype 2a), Huh7.5 cells were incubated for 1 h in the presence of the virus at a multiplicity of infection (MOI)=0.02 using a viral stock of known titer. Cells were passaged for approximately 2 weeks to allow the infection to reach close to 100% of cells as determined by HCV core protein immunofluorescence, in order to avoid dilution of ‘infected’ lipidomic signatures by uninfected cells in partially infected cultures. Both HCV-infected and uninfected cells were then incubated in the presence or absence of iminosugars for 4 days, at which point they were harvested using trypsin/EDTA, washed 3 times in cold PBS, counted using trypan blue staining, and final cell pellets were resuspended in methanol:acetone (vol 1:1) prior to lipid profiling, A small volume of each sample was used for total protein estimation using the Bradford protein assay (Bio-Rad). […]

obese mice = details: cited from earlier work
ER alpha glucosidases = details: cited from earlier work
PI3 kinase = details: cited from earlier work

Compound: OC[C@@H]1[C@@H](O)[C@H](O)[C@@H](O)CN1CCCCCOCC12CC3CC(CC(C3)C1)C2 [AMP-DNJ, N-(5-adamantane-1-yl-methoxy-pentyl)-deoxynojirimycin]
- Mead acid component of the global fatty acid composition (Huh7.5 cells): almost doubled
- fatty acid synthase activity (obese mice): decreases fatty acid synthase activity
- hepatic insulin sensitivity (obese mice): improves hepatic insulin sensitivity
- hepatic steatosis (obese mice): abolishes hepatic steatosis

Compound: CCCCN1C[C@H](O)[C@@H](O)[C@H](O)[C@H]1CO [NB-DNJ, N-butyl-deoxynojirimycin]
- inhibitory activity towards ER alpha glucosidases (ER alpha glucosidases): also inhibits glucosidase

Compound: CCCCN1C[C@H](O)[C@@H](O)[C@@H](O)[C@H]1CO [NB-DGJ, N—(N-butyl) deoxygalactojirimycin]
- inhibitory activity towards ER alpha glucosidases (ER alpha glucosidases): no inhibitory activity

Compound: CCCCC/C=C\C/C=C\C/C=C\C/C=C\CCCC(=O)O [arachidonic acid]
- activation of PI3 kinase by insulin (PI3 kinase): blocks the activation
